According to paper PMC6158189, “A pharmacological probe identifies cystathionine β-synthase as a new negative regulator for ferroptosis” (Cell Death & Disease, 2018):

Biological target: T1, endogenous hCBS in HepG2 cells (Homo sapiens, UniProt P35520)
T1 construct: effects of CH004 on the activity of endogenous CBS by incubating with HepG2; endogenous in cells; host or cells: HepG2
T1 sequence (P35520 1-551): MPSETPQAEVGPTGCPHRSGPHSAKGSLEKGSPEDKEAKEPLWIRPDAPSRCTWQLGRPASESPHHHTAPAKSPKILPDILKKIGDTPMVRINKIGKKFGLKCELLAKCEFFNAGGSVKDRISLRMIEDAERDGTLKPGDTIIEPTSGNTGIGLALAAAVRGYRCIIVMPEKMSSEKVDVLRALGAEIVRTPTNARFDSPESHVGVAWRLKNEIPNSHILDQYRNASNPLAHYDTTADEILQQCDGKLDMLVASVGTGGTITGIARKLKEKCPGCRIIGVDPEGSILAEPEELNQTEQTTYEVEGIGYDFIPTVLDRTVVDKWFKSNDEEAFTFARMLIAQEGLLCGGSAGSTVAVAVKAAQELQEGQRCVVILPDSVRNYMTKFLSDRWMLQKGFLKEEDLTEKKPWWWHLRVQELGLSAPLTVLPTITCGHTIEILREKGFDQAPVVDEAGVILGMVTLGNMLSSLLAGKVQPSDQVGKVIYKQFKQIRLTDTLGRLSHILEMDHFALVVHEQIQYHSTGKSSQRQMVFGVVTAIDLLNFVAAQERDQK
Assay: endogenous H2S in HepG2 cells (AzMC probe)
Format: cell-based
Settings: for decrease in H2S: HepG2
Procedure: Fig. 3 The effect of CH004 on the activity of endogenous hCBS in cells. a CH004 dose-dependently elevates the levels of Hcys in HepG2 and HEK293T cells. HepG2 cells or HEK293T cells were incubated with indicated CH004 or DMSO (control) for 12 h. The amount of total Hcys in cells was measured by ELISA using Axis® Homocysteine EIA kit (IBL, AX51301) (“Materials and Methods” section). […] HepG2 cells were treated with indicated DMSO, CH004 or HA for 8 h before the staining with AzMC probe. The amount of the H2S (blue) was quantified and is shown in (c). Bars, 50 μm. Control (CTR), DMSO group (100%). A representative fluorescence image from three independent experiments is shown. Means ± SDS (n = 3). d CH004 elevates Hcys in the peripheral blood of rats. The total Hcys of the blood samples collected from the anesthetized rats at the 75 min time point (Materials and Methods) were quantified by ELISA (see above). Means ± SDS (n = 6).
H2S levels in living cells were detected using a H2S-specific fluorescent probe according to a protocol described previously[31],[55]. To measure H2S in transiently transfected HEK293T cells, the cells were seeded on poly-D-Lys-coated coverslips (Thermo Scientific, Waltham, MA, USA) in 12-well plates at a density of ~ 1 × 10^5 cells per well, and hCBS or hCSE plasmids were transiently transfected by X-tremeGENE HP DNA Transfection Reagent according to the manufacturer’s protocol (Roche, Basel, Switzerland). After 24 h, the transfected cells were treated with DMSO or inhibitors for another 8 h, followed by staining with 7-azide-4-methylcoumarin (AzMC; Sigma-Aldrich). Similarly, HEK293T cells stably expressing CBS WT, Q222A mutant or EV were seeded on poly-D-Lys-coated coverslips in 12-well plates for one day before treatment with DMSO or inhibitors for 8 h. After incubation with 50 μM AzMC at 37 °C for 30 min, the cells were washed 4 times with PBS, and the fluorescent images were recorded with excitation by 405 nm laser by using a A1Si (Nikon) confocal microscope. The intensity of the blue fluorescent signals, indicating the amount of H2S, was quantified by ImageJ software (NIH, Bethesda, ML). The H2S signal was then corrected for the background signal detected in HEK293T cells transiently or stably expressing of empty vector (HEK293T-EV) and normalized by the corresponding cell-occupying area and compared with the control (DMSO group, 100%). Similarly, the H2S signal in HepG2 cells was quantified by AzMC staining, corrected for the background signal outside the cells, normalized by the cell area and expressed as percentages of DMSO control (100%).
To elucidate the subcellular localization of H2S, HepG2 cells were seeded on poly-D-Lys-coated coverslips in 12-well plates. After treatment with DMSO or inhibitors for 8 h, cells were sequentially incubated with 200 nM Mito-Tracker® Green and 50 μM AzMC for 30 min at 37 °C in PBS, and then fluorescent images were taken using a confocal microscope.
Figure S9. The effect of AOAA on the level of endogenous H2S in HepG2 cells. […] HepG2 cells were incubated with 0 (DMSO control), 1, 5 or 10 mM AOAA for 8 h before staining with 50 μM AzMC. Upper panels, the overlaid images; middle panels, the corresponding fluorescent images (blue, H2S); the lower panels, the bright-field images. Bars: 50 μm. (B) Quantification of the mean fluorescent density of H2S (blue). The intensity of H2S was accordingly quantified and normalized by correcting for the background signal outside cells. Data was expressed as percentages of the control (DMSO group, 100%). Means ± SDs (n=3). One-way ANOVA with Bonferroni post-tests was used for the analysis. *, p< 0.05; ***, p< 0.001; n.s. no significance. The images are one representative from three independent experiments.

Cn1nc(Cc2ccccc2)nc2c(=O)n(C)c(=O)nc1-2 [CH004, 3-benzyl-1,6-dimethylpyrimido[5,4-e][1,2,4]triazine-5,7(1H,6H)-dione]
decrease in H2S (5 μM, 8 h): ~ 50%
decrease in H2S (20 μM, 8 h): ~ 90%
mitochondrial H2S (8 h, Mito-tracker Green and AzMC): dose-dependently decreases
potency on inhibiting production of H2S in cells compared with AOAA (CH004 vs AOAA): at least 1000 fold
